Measured values published in patent publication US11450409B2, “Determination of NFkB pathway activity using unique combination of target genes” (InnoSIGN B.V., priority 2015, dated 2022).

Experiments:
[1] = test system: NFkB cellular signaling pathway; conditions: reported in literature (Schmelzer and Döring 2010), human THP-1 monocytes; cited from earlier work
[2] = test system: NFkB cellular signaling pathway; assay: NFkB pathway activity prediction, Bayesian network model (evidence curated list), THP-1 monocytic cells; assay type: cell-based, human; conditions: THP-1 cells treated with CoQ10 and stimulated with LPS (group 3)
Description: (§1) Herein, an exemplary Bayesian network model as shown in FIG. 2 was first used to model the transcriptional program of the NFkB cellular signaling pathway in a simple manner. The model consists of three types of nodes: (a) a transcription factor (TF) element (with states “absent” and “present”) in a first layer 1; (b) target genes TG1, TG2, TGn (with states “down” and “up”) in a second layer 2, and; (c) measurement nodes linked to the expression levels of the target genes in a third layer 3. These can be microarray probesets PS1,1, PS1,2, PS1,3, PS2,1, PSn,1, PSn,m (with states “low” and “high”), as preferably used herein, but could also be other gene expression measurements such as RNAseq or RT-qPCR.
A suitable implementation of the mathematical model, herein, the exemplary Bayesian network model, is based on microarray data. The model describes (i) how the expression levels of the target genes depend on the activation of the TF element, and (ii) how probeset intensities, in turn, depend on the expression levels of the respective target genes. For the latter, probeset intensities may be taken from fRMA pre-processed Affymetrix HG-U133Plus2.0 microarrays, which are widely available from the Gene Expression Omnibus (GEO, www.ncbi.nlm.nih.gov/geo) and ArrayExpress (www.ebi.ac.uk/arrayexpress). […]

[3] = test system: NFkB cellular signaling pathway; assay: NFkB pathway activity prediction, Bayesian network model (broad literature list), NHBE samples from E-MTAB-1312 stimulated with TNFα; assay type: cell-based, human; conditions: NHBE cells
Description: The list of target genes of the NFkB cellular signaling pathway constructed based on literature evidence following the procedure as described herein (“evidence curated list of target genes”, see Table 3) is compared here with a “broad literature list” of putative target genes of the NFkB cellular signaling pathway constructed not following above mentioned procedure. The alternative list is a compilation of genes attributed to responding to activity of the NFkB cellular signaling pathway provided within Thomson-Reuters's Metacore (last accessed Sep. 6, 2013). This database was queried for genes that are transcriptionally regulated directly downstream of the family of NFkB proteins, i.e., NFKB1 or p50/p105, NFKB2 or p52/p100, RELA or p65, REL, and RELB. […] A further selection was made based on the number of publication references supporting the attributed transcriptional regulation of the respective gene by the NFkB family. Genes that had ten or more references were selected for the broad literature list. In other words, no manual curation of the references and no calculation of an evidence score based on the experimental evidence was performed. […] The expression of the genes was measured by 56 probesets on the Affymetrix HG-U133Plus2.0 microarray platform which were selected using the Bioconductor plugin of R and one manually added probeset for DEFB4A, see Table 7. […]

[4] = test system: NFkB cellular signaling pathway; assay: NFkB pathway activity prediction, Bayesian network model (evidence curated list, 19, 13 and 7 target genes shortlists), NHBE samples from E-MTAB-1312 stimulated with TNFα; assay type: cell-based, human; conditions: NHBE cells
Description: as §1
A suitable implementation of the mathematical model, herein, the exemplary Bayesian network model, is based on microarray data. The model describes (i) how the expression levels of the target genes depend on the activation of the TF element, and (ii) how probeset intensities, in turn, depend on the expression levels of the respective target genes. For the latter, probeset intensities may be taken from fRMA pre-processed Affymetrix HG-U133Plus2.0 microarrays, which are widely available from the Gene Expression Omnibus (GEO, www.ncbi.nlm.nih.gov/geo) and ArrayExpress (www.ebi.ac.uk/arrayexpress).
Once the exemplary Bayesian network model is built and calibrated (see below), the model can be used on microarray data of a new sample by entering the probeset measurements as observations in the third layer 3, and inferring backwards in the model what the probability must have been for the TF element to be “present”. Here, “present” is considered to be the phenomenon that the TF element is bound to the DNA and is controlling transcription of the cellular signaling pathway's target genes, and “absent” the case that the TF element is not controlling transcription. […]

[5] = test system: NFkB cellular signaling pathway; assay: NFkB pathway activity prediction, linear model (evidence curated list), NHBE samples from E-MTAB-1312 stimulated with TNFα; assay type: cell-based, human; conditions: NHBE cells
Description: Further to the exemplary Bayesian network model described above, an exemplary linear model was used to model the transcriptional program of the NFkB cellular signaling pathway in a simple manner. The structure of the model corresponded to the one shown in FIG. 3 of the published international patent application WO 2014/102668 A2 (“Assessment of cellular signaling pathway activity using linear combination(s) of target gene expressions”). More specifically, the exemplary linear model consisted of a TF node, a layer of target gene expression and a layer of mRNA expression levels and made use of continuous expression data, all target genes from the evidence curated list of target genes (see Table 3) with all probesets included and without the use of a pseudocount.
In the diagram, the vertical axis indicates the activity score, wherein positive values correspond to an active NFkB cellular signaling pathway and negative values correspond to a passive NFkB cellular signaling pathway. NHBE cell lines were unstimulated or stimulated with different TNFα concentrations for different timings. All unstimulated healthy cells (groups 1 to 4) are correctly predicted to have a passive NFkB cellular signaling pathway. […]

[6] = 0.5 h stimulation, all TNFα concentrations (groups 5, 9, 13)

Compound	effect on NFkB cellular signaling pathway activity [1]	predicted NFkB cellular signaling pathway activity [2]	predicted NFkB cellular signaling pathway activity [3, 6]	predicted NFkB cellular signaling pathway activity ([3]; stimulation times of 2-24 hours)	predicted NFkB cellular signaling pathway activity ([4]; 2 and 4 hour stimulation, all concentrations tested)	predicted NFkB cellular signaling pathway activity ([4]; 0.5 h stimulation, low/medium/high TNFα (groups 5, 9, 13))	predicted NFkB cellular signaling pathway activity ([4]; 24 hours stimulation (groups 8, 12, 16))	predicted NFkB cellular signaling pathway activity score [5, 6]	predicted NFkB cellular signaling pathway activity score ([5]; stimulation times of 2 to 24 hours)
COC1=C(OC)C(=O)C(C/C=C(\C)CC/C=C(\C)CC/C=C(\C)CC/C=C(\C)CC/C=C(\C)CC/C=C(\C)CC/C=C(\C)CC/C=C(\C)CC/C=C(\C)CCC=C(C)C)=C(C)C1=O [CoQ10, Coenzyme Q10]	limited	high predicted NFkB cellular signaling pathway activities	–	–	–	–	–	–	–
TNFα	–	–	too short for the NFkB cellular signaling pathway to become active	resulted in an active NFkB cellular signaling pathway	full-blown NFkB cellular signaling pathway activity	too short for the NFkB cellular signaling pathway to become active	appears to lower the NFkB cellular signaling pathway activity	too short for the NFkB cellular signaling pathway to become active	resulted in an active NFkB cellular signaling pathway
